{"source": "patent US8524909B2", "about": "“Tetrahydro-pyran derivatives” (Hoffmann-La Roche Inc., priority 2010, dated 2013)", "target": "mGlyT-1b (Mus musculus (Mouse), UniProt P28571)", "sequence (P28571 other isoform, or with tags, fused parts or gaps isoform P28571-2)": "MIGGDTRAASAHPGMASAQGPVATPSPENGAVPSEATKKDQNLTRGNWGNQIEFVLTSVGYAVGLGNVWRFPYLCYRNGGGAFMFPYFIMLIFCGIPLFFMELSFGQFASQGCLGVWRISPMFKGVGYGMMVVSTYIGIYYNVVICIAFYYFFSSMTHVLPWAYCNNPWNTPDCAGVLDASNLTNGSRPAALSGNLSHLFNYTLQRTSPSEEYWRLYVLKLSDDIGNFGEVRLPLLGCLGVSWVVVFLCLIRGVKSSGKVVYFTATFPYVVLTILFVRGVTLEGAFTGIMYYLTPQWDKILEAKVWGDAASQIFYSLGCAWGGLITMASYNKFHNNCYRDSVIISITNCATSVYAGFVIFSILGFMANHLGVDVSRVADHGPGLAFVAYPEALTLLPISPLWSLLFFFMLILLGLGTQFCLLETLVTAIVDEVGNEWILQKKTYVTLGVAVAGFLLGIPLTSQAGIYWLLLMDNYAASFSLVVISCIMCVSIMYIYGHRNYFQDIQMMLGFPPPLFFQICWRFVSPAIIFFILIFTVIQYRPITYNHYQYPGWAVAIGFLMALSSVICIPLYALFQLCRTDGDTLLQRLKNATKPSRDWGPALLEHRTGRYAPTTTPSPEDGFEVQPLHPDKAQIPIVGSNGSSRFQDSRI", "assay": "Glycine Uptake Inhibition Assay (mGlyT-1b)", "assay_type": "cell-based", "settings": "[3H]-glycine uptake in Flp-in-CHO cells stably transfected with mGlyT1b cDNA; 20 min preincubation at 22° C.", "description": "DMEM complete medium: Nutrient mixture F-12 (Gibco Life-technologies), fetal bovine serum (FBS) 5%, (Gibco life technologies), Penicillin/Streptomycin 1% (Gibco life technologies), Hygromycin 0.6 mg/ml (Gibco life technologies), Glutamine 1 mM Gibco life technologies)\nUptake buffer (UB): 150 mM NaCl, 10 mM Hepes-Tris, pH 7.4, 1 mM CaCl2, 2.5 mM KCl, 2.5 mM MgSO4, 10 mM (+) D-glucose.\nFlp-in™-CHO (Invitrogen Cat no R758-07) cells stably transfected with mGlyT1b cDNA.\nGlycine Uptake Inhibition Assay (mGlyT-1b)\nOn day 1 mammalian cells, (Flp-in™-CHO), transfected with mGlyT-1b cDNA, were plated at the density of 40,000 cells/well in complete F-12 medium, without hygromycin in 96-well culture plates. On day 2, the medium was aspirated and the cells were washed twice with uptake buffer (UB). The cells were then incubated for 20 min at 22° C. with either (i) no potential competitor, (ii) 10 mM non-radioactive glycine, (iii) a concentration of a potential inhibitor. A range of concentrations of the potential inhibitor was used to generate data for calculating the concentration of inhibitor resulting in 50% of the effect (e.g. IC50, the concentration of the competitor inhibiting glycine uptake of 50%). A solution was then immediately added containing [^3H]-glycine 60 nM (11-16 Ci/mmol) and 25 μM non-radioactive glycine. The plates were incubated with gentle shaking and the reaction was stopped by aspiration of the mixture and washing (three times) with ice-cold UB. The cells were lysed with scintillation liquid, shaken 3 hours and the radioactivity in the cells was counted using a scintillation counter.", "note": "pIC50: −log10 of the molar value."}
{"smiles": "COc1cc(C(F)(F)F)cc(SC)c1C(=O)N[C@H]1COCC[C@H]1N1CCCC1", "note": "(racemic) [Example 1, 2-Methoxy-6-methylsulfanyl-N-((3RS,4RS)-4-pyrrolidin-1-yl-tetrahydro-pyran-3-yl)-4-trifluoromethyl-benzamide]", "values": [{"measurement": "pIC50", "result": 6.58}]}
{"smiles": "COc1cc(C(F)(F)F)cc(SC)c1C(=O)N[C@H]1COCC[C@@H]1N1CCCC1", "note": "(racemic) [Example 2, 2-Methoxy-6-methylsulfanyl-N-((3RS,4SR)-4-pyrrolidin-1-yl-tetrahydro-pyran-3-yl)-4-trifluoromethyl-benzamide]", "values": [{"measurement": "pIC50", "result": 7.18}]}
{"smiles": "COc1cc(C(F)(F)F)cc(SC)c1C(=O)N[C@H]1COCC[C@H]1NC1CCC1", "note": "(racemic) [Example 3, N-((3RS,4RS)-4-Cyclobutylamino-tetrahydro-pyran-3-yl)-2-methoxy-6-methylsulfanyl-4-trifluoromethyl-benzamide]", "values": [{"measurement": "pIC50", "result": 6.30}]}
{"smiles": "COc1cc(C(F)(F)F)cc(SC)c1C(=O)N[C@H]1COCC[C@@H]1NC1CCC1", "note": "(racemic) [Example 4, N-((3RS,4SR)-4-Cyclobutylamino-tetrahydro-pyran-3-yl)-2-methoxy-6-methylsulfanyl-4-trifluoromethyl-benzamide]", "values": [{"measurement": "pIC50", "result": 6.47}]}
{"smiles": "COc1cc(C(F)(F)F)cc(SC)c1C(=O)N[C@H]1COCC[C@@H]1N1CCC(O)C1", "note": "(mixture of isomers) [Example 7, N-[(3RS,4SR)-4-(3-Hydroxy-pyrrolidin-1-yl)-tetrahydro-pyran-3-yl]-2-methoxy-6-methylsulfanyl-4-trifluoromethyl-benzamide]", "values": [{"measurement": "pIC50", "result": 6.81}]}
{"smiles": "O=C(N[C@@H]1COCC[C@H]1N1CCCC1)c1ccc(C(F)(F)F)cc1C1CC1", "note": "(racemic) [Example 8, 2-Cyclopropyl-N-((3SR,4RS)-4-pyrrolidin-1-yl-tetrahydro-pyran-3-yl)-4-trifluoromethyl-benzamide]", "values": [{"measurement": "pIC50", "result": 7.44}]}
{"smiles": "CSc1cc(C(F)(F)F)cc(C(F)(F)F)c1C(=O)N[C@@H]1COCC[C@H]1N1CCCC1", "note": "(racemic) [Example 9, 2-Methylsulfanyl-N-((3SR,4RS)-4-pyrrolidin-1-yl-tetrahydro-pyran-3-yl)-4,6-bis-trifluoromethyl-benzamide]", "values": [{"measurement": "pIC50", "result": 7.78}]}
{"smiles": "Cc1cc(C(F)(F)F)cc(C(F)(F)F)c1C(=O)N[C@@H]1COCC[C@H]1N1CCCC1", "note": "(racemic) [Example 10, 2-Methyl-N-((3SR,4RS)-4-pyrrolidin-1-yl-tetrahydro-pyran-3-yl)-4,6-bis-trifluoromethyl-benzamide]", "values": [{"measurement": "pIC50", "result": 7.39}]}
{"smiles": "COc1cc(C(F)(F)F)cc(SC)c1C(=O)N[C@@H]1COCC[C@H]1NC1CCCC1", "note": "(racemic) [Example 11, N-((3SR,4RS)-4-Cyclopentylamino-tetrahydro-pyran-3-yl)-2-methoxy-6-methylsulfanyl-4-trifluoromethyl-benzamide]", "values": [{"measurement": "pIC50", "result": 6.90}]}
{"smiles": "O=C(N[C@@H]1COCC[C@H]1NC1CCCC1)c1ccc(C(F)(F)F)cc1C1CC1", "note": "(racemic) [Example 12, N-((3SR,4RS)-4-Cyclopentylamino-tetrahydro-pyran-3-yl)-2-cyclopropyl-4-trifluoromethyl-benzamide]", "values": [{"measurement": "pIC50", "result": 7.12}]}
{"smiles": "CSc1cc(C(F)(F)F)cc(C(F)(F)F)c1C(=O)N[C@@H]1COCC[C@H]1NC1CCCC1", "note": "(racemic) [Example 13, N-((3SR,4RS)-4-Cyclopentylamino-tetrahydro-pyran-3-yl)-2-methylsulfanyl-4,6-bis-trifluoromethyl-benzamide]", "values": [{"measurement": "pIC50", "result": 6.60}]}
{"smiles": "O=C(N[C@@H]1COCC[C@H]1NC1CCCCC1)c1ccc(C(F)(F)F)cc1C1CC1", "note": "(racemic) [Example 14, N-((3SR,4RS)-4-Cyclohexylamino-tetrahydro-pyran-3-yl)-2-cyclopropyl-4-trifluoromethyl-benzamide]", "values": [{"measurement": "pIC50", "result": 6.90}]}
{"smiles": "O=C(N[C@@H]1COCC[C@H]1N1CCCC1)c1c(C2CC2)cc(C(F)(F)F)cc1C(F)(F)F", "note": "(racemic) [Example 15, 2-Cyclopropyl-N-((3SR,4RS)-4-pyrrolidin-1-yl-tetrahydro-pyran-3-yl)-4,6-bis-trifluoromethyl-benzamide]", "values": [{"measurement": "pIC50", "result": 7.88}]}
{"smiles": "CC(C)N[C@@H]1CCOC[C@H]1NC(=O)c1ccc(C(F)(F)F)cc1C1CC1", "note": "(racemic) [Example 16, Cyclopropyl-N-((3SR,4RS)-4-isopropylamino-tetrahydro-pyran-3-yl)-4-trifluoro-methylbenzamide]", "values": [{"measurement": "pIC50", "result": 6.53}]}
{"smiles": "O=C(N[C@@H]1COCC[C@H]1NC1CCOCC1)c1ccc(C(F)(F)F)cc1C1CC1", "note": "(racemic) [Example 17, 2-Cyclopropyl-N-[(3SR,4RS)-4-(tetrahydro-pyran-4-ylamino)-tetrahydro-pyran-3-yl]-4-trifluoro-methylbenzamide]", "values": [{"measurement": "pIC50", "result": 6.04}]}
{"smiles": "O=C(N[C@@H]1COCC[C@H]1NCC1CC1)c1ccc(C(F)(F)F)cc1C1CC1", "note": "(racemic) [Example 18, Cyclopropyl-N-[(3SR,4RS)-4-(cyclopropyl-methyl-amino)-tetrahydro-pyran-3-yl]-4-trifluoro-methylbenzamide]", "values": [{"measurement": "pIC50", "result": 6.90}]}
{"smiles": "O=C(N[C@@H]1COCC[C@H]1N1CCCCC1)c1ccc(C(F)(F)F)cc1C1CC1", "note": "(racemic) [Example 19, 2-Cyclopropyl-N-((3SR,4RS)-4-piperidin-1-yl-tetrahydro-pyran-3-yl)-4-trifluoro-methylbenzamide]", "values": [{"measurement": "pIC50", "result": 7.09}]}
{"smiles": "O=C(N[C@@H]1COCC[C@H]1NC1CC1)c1ccc(C(F)(F)F)cc1C1CC1", "note": "(racemic) [Example 20, 2-Cyclopropyl-N-((3SR,4RS)-4-cyclopropylamino-tetrahydro-pyran-3-yl)-4-trifluoromethyl-benzamide]", "values": [{"measurement": "pIC50", "result": 6.71}]}
{"smiles": "Cc1cc(C(F)(F)F)cc(C)c1C(=O)N[C@@H]1COCC[C@H]1N1CCCC1", "note": "(racemic) [Example 21, 2,6-Dimethyl-N-((3SR,4RS)-4-pyrrolidin-1-yl-tetrahydro-pyran-3-yl)-4-trifluoro-methylbenzamide]", "values": [{"measurement": "pIC50", "result": 7.34}]}
{"smiles": "COc1cc(C(F)(F)F)cc(C)c1C(=O)N[C@@H]1COCC[C@H]1N1CCCC1", "note": "(racemic) [Example 22, 2-Methoxy-6-methyl-N-((3SR,4RS)-4-pyrrolidin-1-yl-tetrahydro-pyran-3-yl)-4-trifluoro-methylbenzamide]", "values": [{"measurement": "pIC50", "result": 6.98}]}
{"smiles": "CCc1cc(C(F)(F)F)cc(CC)c1C(=O)N[C@@H]1COCC[C@H]1N1CCCC1", "note": "(racemic) [Example 23, 2,6-Diethyl-N-((3SR,4RS)-4-pyrrolidin-1-yl-tetrahydro-pyran-3-yl)-4-trifluoro-methylbenzamide]", "values": [{"measurement": "pIC50", "result": 7.23}]}
{"smiles": "CCc1cc(C(F)(F)F)cc(OC)c1C(=O)N[C@@H]1COCC[C@H]1N1CCCC1", "note": "(racemic) [Example 24, 2-Ethyl-6-methoxy-N-((3SR,4RS)-4-pyrrolidin-1-yl-tetrahydro-pyran-3-yl)-4-trifluoro-methyl-benzamide]", "values": [{"measurement": "pIC50", "result": 7.19}]}
{"smiles": "COc1cc(C(F)(F)F)cc(SC)c1C(=O)N[C@@H]1COCC[C@H]1NC1(C)CCCCC1", "note": "(racemic) [Example 25, 2-Methoxy-N-[(3SR,4RS)-4-(1-methyl-cyclohexyl-amino)-tetrahydro-pyran-3-yl]-6-methyl-sulfanyl-4-trifluoromethyl-benzamide]", "values": [{"measurement": "pIC50", "result": 6.56}]}
{"smiles": "CCc1cc(C(F)(F)F)cc(C)c1C(=O)N[C@@H]1COCC[C@H]1N1CCCC1", "note": "(racemic) [Example 26, 2-Ethyl-6-methyl-N-((3SR,4RS)-4-pyrrolidin-1-yl-tetrahydro-pyran-3-yl)-4-trifluoro-methyl-benzamide]", "values": [{"measurement": "pIC50", "result": 7.75}]}
{"smiles": "COc1cc(C(F)(F)F)cc(C2CC2)c1C(=O)N[C@@H]1COCC[C@H]1N1CCCC1", "note": "(racemic) [Example 27, Cyclopropyl-6-methoxy-N-((3SR,4RS) 4 pyrrolidin-1-yl-tetrahydro-pyran-3-yl)-4-trifluoro-methyl-benzamide]", "values": [{"measurement": "pIC50", "result": 7.83}]}
{"smiles": "COc1cc(C(F)(F)F)cc(SC)c1C(=O)N[C@@H]1COCC[C@H]1NC1(C)CCCC1", "note": "(racemic) [Example 28, 2-Methoxy-N-[(3SR,4RS)-4-(1-methyl-cyclo-pentylamino)-tetrahydro-pyran-3-yl]-6-methyl-sulfanyl-4-trifluoromethyl-benzamide]", "values": [{"measurement": "pIC50", "result": 6.84}]}
{"smiles": "CC1(N[C@@H]2CCOC[C@H]2NC(=O)c2ccc(C(F)(F)F)cc2C2CC2)CCCC1", "note": "(racemic) [Example 29, 2-Cyclopropyl-N-[(3SR,4RS)-4-(1-methyl-cyclo-pentyl-amino)tetra-hydro-pyran-3-yl]-4-trifluoromethyl-benzamide]", "values": [{"measurement": "pIC50", "result": 6.63}]}
{"smiles": "CC(N[C@@H]1CCOC[C@H]1NC(=O)c1ccc(C(F)(F)F)cc1C1CC1)C1CC1", "note": "(mixture of isomers) [Example 30, 2-Cyclopropyl-N-[(3RS,4SR)-4-(1-cyclopropyl-ethylamino)-tetrahydro-pyran-3-yl]-4-trifluoro-methylbenzamide]", "values": [{"measurement": "pIC50", "result": 7.08}]}
{"smiles": "COc1cc(C(F)(F)F)cc(SC)c1C(=O)N[C@@H]1COCC[C@H]1NC(C)C1CC1", "note": "(mixture of isomers) [Example 31, N-[(3SR,4RS)-4-(1-Cyclopropyl-ethylamino)-tetrahydro-pyran-3-yl]-2-methoxy-6-methylsulfanyl-4-trifluoro-methyl-benzamide]", "values": [{"measurement": "pIC50", "result": 6.56}]}
{"smiles": "O=C(N[C@@H]1COCC[C@H]1NC1CCC1)c1ccc(C(F)(F)F)cc1C1CC1", "note": "(racemic) [Example 32, N-((3SR,4RS)-4-Cyclobutylamino-tetrahydro-pyran-3-yl)-2-cyclo-propyl-4-trifluoromethyl-benzamide]", "values": [{"measurement": "pIC50", "result": 6.92}]}
